In patent publication US12673056B2, “Oral formulation comprising a crystalline form of rabeximod” (Cyxone AB, priority 2020, dated 2026):

How the values were obtained:
[1] = Particle size by laser diffractometry (Malvern Mastersizer) following micronisation; format: physicochemical; conditions: for Feed particles % <10 μm: before micronisation; for % <10 μm / D(0.1) / D(0.5) / D(0.9): result after micronisation
Description: In a still further embodiment the composition comprises rabeximod in the form of a dry powder, e.g. a micronized powder. The particle size distribution can be determined by means of laser diffractometry. In a preferred embodiment, a Malvern Instru-ments Mastersizer is used to determine the particle size distribution. Using a Malvern Mastersizer apparatus, volume-based size distribution parameters will typically be re-ported, e.g. in the form of the D10, D50 and D90 values. The average particle size (D50-value), which is also denoted D50-value of the integral volume distribution, is defined in the context of this invention as the particle diameter at which 50 percent by volume of the particles have a smaller diameter than the diameter which corresponds to the D50-value. Likewise, 50 percent by volume of the particles have a larger diameter than the D50-value. Analogously, the D90-value of the integral volume distribution is defined as the particle diameter at which 90 percent by volume of the particles have a smaller diameter than the diameter which corresponds to the D90-value. Corre-spondingly, the D10-value of the integral volume distribution is defined as the particle diameter at which 10 percent by volume of the particles have a smaller diameter than the diameter which corresponds to the D10-value. Typically, in accordance with the present invention, the Rabeximod (micronized) dry powder has a particle size characterized by a D10 within the range of 0.5-1.0 μm, a D50 within the range of 1.5-3.5 μm, and/or a D90 within the range of 5.5-9.9 μm, when measured using laser light diffractometry.
The micronisation operation is performed using a standard jet-mill. The set point for the particle size was that not less than 90% of the particles should be smaller than 10 μm. In-process samples were drawn and analyzed using a Malvern Mastersizer during the process to verify that a sufficient size reduction had been achieved (Malvern Mastersizer 2000 instrument, equipped with a Scirocco 2000(A) dispersion unit and a Micro Tray, operated at 2.5 bar, a feed rate of 60%, a measuring time of 5 seconds and a background time of 5 second; compliant with Ph.Fur method 2.9.31).
Results of the micronisation step in particle size is provided in Table 1 for Rabeximod drug substance batches.

healthy male volunteers = test: Phase 1 clinical trial: safety, tolerability, pharmacokinetics of single and multiple oral rising doses; format: in vivo, human
Description: The Phase 1 study assessed the safety, tolerability, pharmacokinetics and pharmacodynamics of single and multiple oral rising doses of Rabeximod (in a capsule formulation as described in the preceding sections) in healthy male volunteers. The study also included an open-label, randomised, two-period crossover part that was designed to investigate the effect of food on the pharmacokinetics of Rabeximod. In total, 87 healthy male subjects were enrolled into the study.

[2] = system: patients diagnosed with active RA; test: Phase II clinical trial in combination with stable dose of methotrexate; format: in vivo, human
Protocol: A total of 225 patients diagnosed with active RA based on the American Rheu-matism Association (ARA) revised criteria were randomized to receive one of the following treatments: • 6.25 mg of Rabeximod (daily) • 15 mg of Rabeximod (daily) • 37.5 mg of Rabeximod (daily) • Placebo
Study drug was provided in the form of a capsule comprising micronized rabeximod, as described in the preceding sections. Placebo was provided in the form of a capsule identical in appearance to the study drug formulation. In all treatment groups patients were required to continue taking a stable dose of methotrexate. Over 200 patients completed the study. During the study, safety, efficacy and pharmaco-kinetic/pharmacodynamic properties of the study drug formulation were assessed with appropriate tests.

SMILES | Feed particles % <10 μm [1] | % <10 μm [1] | D(0.1) [1] | D(0.5) [1] | D(0.9) [1] | time plasma concentrations measurable post dose (healthy male volunteers; on average, following repeated once daily dosing (Day 14)) | increase of systemic exposure (AUC0-t) with dose (healthy male volunteers; repeated once daily administration) | increase of systemic exposure (AUC0-t) with dose (healthy male volunteers; single administration at 12.5 mg to 600 mg) | tolerability, higher doses (healthy male volunteers; single dose of 600 mg, and multiple dose of 600 mg loading followed by 100 mg) | tolerability, single doses (healthy male volunteers; single oral doses up to 400 mg) | tolerability, multiple oral doses (healthy male volunteers; up to a 200 mg loading dose followed by 50 mg maintenance dose) | most optimal treatment based on the efficacy and safety results ([2]; 15 mg daily) | effects for key secondary endpoints of treatment ([2]; 6.25, 15 or 37.5 mg daily with methotrexate, p<0.05) | predicted increase of AUC0-t and Cmax for a doubling in dose ([2]; Power Model, dose range 6.25 to 37.5 mg, patients with moderate or severe RA, on average) | kinetics with respect to time (accumulation in plasma consistent with t1/2) ([2]; repeated oral administration)
Cc1cc2nc3c4cc(Cl)ccc4n(CC(=O)NCCN(C)C)c3nc2cc1C [146-32] | 41.9% | 98.1% | 0.7 μm | 2.2 μm | 8.2 μm |  |  |  |  |  |  |  |  |  | 
Cc1cc2nc3c4cc(Cl)ccc4n(CC(=O)NCCN(C)C)c3nc2cc1C [262-1] | 29.0% | 94.5% | 0.7 μm | 2.2 μm | 8.4 μm |  |  |  |  |  |  |  |  |  | 
Cc1cc2nc3c4cc(Cl)ccc4n(CC(=O)NCCN(C)C)c3nc2cc1C [262-2] | 32.6% | 92.6% | 0.7 μm | 2.2 μm | 7.6 μm |  |  |  |  |  |  |  |  |  | 
Cc1cc2nc3c4cc(Cl)ccc4n(CC(=O)NCCN(C)C)c3nc2cc1C [Rabeximod, 9-Chloro-2,3-dimethyl-6-(N,N-dimethylaminoethylamino-2-oxoethyl)-6H-indolo-[2,3b]quinoxaline] |  |  |  |  |  | up to 168 hours | trend was also noted | approximately dose-proportional | less well tolerated due to phototoxicity reactions | well tolerated | well tolerated | most optimal | therapeutically meaningful and statistically significant | 2 fold | linear with respect to time
Cc1cc2nc3c4cc(Cl)ccc4n(CC(=O)NCCN(C)C)c3nc2cc1C [compound 149] | 30.9% | 99.1% | 0.6 μm | 2.0 μm | 5.9 μm |  |  |  |  |  |  |  |  |  | 
Cc1cc2nc3c4cc(Cl)ccc4n(CC(=O)NCCN(C)C)c3nc2cc1C [compound 153] | 32.7% | 99.1% | 0.6 μm | 1.9 μm | 5.7 μm |  |  |  |  |  |  |  |  |  | 
